Holding throughout (format): in vivo
Assay [1] deals with male ICR mice. Put plainly: MES test (anti-epilepsy activity), mice, oral (mMES po). Particulars: Mus musculus; for ED50: mice, at peak time. The method, then:
(§1) Biological Experimental Example. 1: Measurement of Anti-Epilepsy Activity (MES-Test)
(§2) In the MES test (Ref., G. Villetti et al. Neuropharmacology 40(2001) 866-878), an electrical stimulus (mice: 50 mA, 60 Hz, 0.2 sec, and rats: 150 mA, 60 Hz, 0.2 sec in the test animal) supplied by an 11 A Shocker (IITC Life Science Company) was delivered through corneal electrodes. All mice or rats assigned to any electroshock at peak time were treated with each test compound sample which was dissolved in 20% tween 80 prepared by saline solvent applied orally before the test. […] Three doses of the test sample were administered orally to 9-18 animals (3-6 mice per dose) for evaluating the respective doses at which 50% of the animals were protected from seizure (ED50). The ED50 value (median effective close) was calculated by Litchfield and Wicoxon log-probit method which is a dose-response relationship. Experimental animals, male ICR mice and male SD rats, were purchased from OrientBio, Samtako, or Nara Biotech, Korea, and housed in cages (4-5 mice or 3 rats per cage) for 4-5 days. The range of mice body weight was between 19 and 25 grams and range of rats body weight was between 100 and 130 grams.
(§3) The obtained results are shown as mean±sem. The difference between the groups was statistically analyzed by ANOVA, and then further examined by Dunnett's test or Bonferroni test. If p is less than 0.05, it was determined that the difference between the groups had statistical significance.
(§4) The results of anti-epileptic activity of the sulfamate derivative compounds measured in the above Experimental Example are shown in the following Tables 4 and 5.

Assay [2] has as its system Male Sprague-Dawley rats. Put plainly: Lithium-pilocarpine induced epilepsy test (LI-PILO), intervention, i.v. at SE onset. The settings on record: iv; rat, administered at SE onset; read-out: Therapeutic effect (min, rat/lv) ED50(mg/kg). The method, then: (§5) Biological Experimental Example 2: Lithium-Pilocarpine Induced Epilepsy Test (LI-PILO Test)
(§6) Male Sprague-Dawley rats (purchased from Orient Bio Inc. Korea) of body weight 175 grams were used for these studies and 3 rats per cage were housed for 4-5 days. On the day prior to SE, rats received 127 mg/kg lithium chloride (Sigma, St. Louis, Mo., U.S.A.) intraperitoneally (i.p.). Approximately 18-20 h following this treatment, rats were given an i.p. injection of 43 mg/kg pilocarpine (Sigma). An i.p. injection of 2 mg/kg methyl-scopolamine (Sigma) was administered 30 min prior to pilocarpine to block the effects of the muscarinic agonist on peripheral cholinergic receptors. Test drugs were dissolved in 20% tween80 (Sigma).
The drugs were administered intravenously (i.v.) in a volume of 2 ul/g body weight at SE onset. Pharmacological effects of all of the test materials were evaluated to compare test groups (n=3-6) with a control group (n=3-6). Control group was administered vehicle only. The animals were then transferred to observation cages and observed continuously for 90 min. Seizure was elicited in approximately 95% of the control group. […]
(§7) The results of Lithium-pilocarpine induced epilepsy test of the sulfamate derivative compounds measured in the above Experimental Example are shown in the following Tables 6.

In assay [3] the test system is Male Sprague-Dawley rats. Put plainly: Lithium-pilocarpine induced epilepsy test (LI-PILO), prevention test, i.p. Particulars: for ED50: ip, at peak time, read-out: Anti-epileptogenesis (rat/ip) ED50(mg/kg); for ED50 / Anti-epileptogenesis (rat/ip) Peak Time: rat, prevention; for Anti-epileptogenesis (rat/ip) Protection %: 6 rats. The method, then:
as §5, §6
The drugs were administered intraperitoneally (i.p.) in a volume of 2 ul/g body weight. Pharmacological effects of all of the test materials were evaluated to compare test groups (n=6) with a control group (n=6). Control group was administered vehicle only. The efficacy was measured 0.5, 1, 2, or 4 hours after the administration of the test material. The time point that the most animals were protected was defined as peak time and the ED50 was determined at peak time. The animals were then transferred to observation cages and observed continuously for 90 min. Seizure was elicited in approximately 95% of the control group. Protection was defined as complete absence of seizure grade 3˜5 (Racine scale; Racine, 1972) over the 90-min observation period. The effective dose of the compound necessary to protect 50% of the animals against seizures compared to controls (i.e. ED50) was determined by a curve fitting program (Excel 2007, Microsoft).
as §7

In assay [4] the test system is male SD rats. Put plainly: MES test (anti-epilepsy activity), rats, oral (rMES po). The settings on record: for ED50: Rattus norvegicus, rats, at peak time. The protocol:
as §1, §2, §3, §4

The subject of assay [5] is Male Sprague-Dawley rats. Put plainly: Lithium-pilocarpine induced epilepsy test (LI-PILO), prevention test, i.p. Particulars: injection amount 30 mg/kg, 3 rats, 1 h.
[6] abbreviates: injection amount 150 mg/kg, 2 h.

Experimental findings from US9937145B2, “Sulfamate derivative compound for use in preventing or treating epilepsy” (Bio-Pharm Solutions Co., Ltd., priority 2013, dated 2018) are described below.

Molecules are shown by their SMILES.

Regarding `CC1(C)O[C@@H](COS(N)(=O)=O)[C@H](c2ccccc2Cl)O1` [Example 2, ((4S, 5S)-5-(2-chlorophenyl)-2,2-dimethyl-1,3-dioxolan-4-yl)methyl sulfamate], the ED50 is 9 mg/kg in assay [1], 89 mg/kg in assay [2], 97.1 mg/kg in assay [3] and 3.5 mg/kg in assay [4]. In assay [3], the “Anti-epileptogenesis (rat/ip) Peak Time” value is on record as 4 h.

On to `Cc1ncsc1[C@H]1OC(C)(C)O[C@@H]1COS(N)(=O)=O` [Example 167, ((4R, 5S)-2,2-dimethyl-5-(4-methylthiazol-5-yl)-1,3-dioxolan-4-yl)methylsulfamate], for which the responders at 100 mg/kg in assay [1] (injection amount 100 mg/kg, 3 mice, read-out: mMES(po) Protection %) came to 100%. Further, the “Anti-epileptogenesis (rat/ip) Protection %” value in assay [5] is recorded as 30^a(100%). For the same molecule, the “Anti-epileptogenesis (rat/ip) Peak Time” value in assay [3] came to 1 h.

For the molecule `CC1(C)O[C@H](c2ccccc2Cl)[C@@H](COS(N)(=O)=O)O1` [Example 1, ((4R,5R)-5-(2-chlorophenyl)-2,2-dimethyl-1,3-dioxolan-4-yl)methyl sulfamate], the ED50 in assay [1] is 6.5 mg/kg; in assay [4], 1.2 mg/kg. Also, the “Anti-epileptogenesis (rat/ip) Protection %” value in assay [3] (setting [6]) is “(50%)”. Further, the “Anti-epileptogenesis (rat/ip) Peak Time” value in assay [3] is recorded as 2 h.

In the case of `CC1(C)O[C@@H](COS(N)(=O)=O)[C@H](c2ccccc2I)O1` [Example 28, ((4S, 5S)-5-(2-iodophenyl)-2,2-dimethyl-1,3-dioxolan-4-yl)methyl sulfamate], the ED50 in assay [1] came out at 15 mg/kg; in assay [3], 154 mg/kg; in assay [4] it was 32.7 mg/kg. For the same molecule, the “Anti-epileptogenesis (rat/ip) Peak Time” value in assay [3] is listed as 1 h.

Turning to `CC1(C)O[C@H](c2ccccc2F)[C@@H](COS(N)(=O)=O)O1` [Example 15, ((4R, 5R)-5-(2-fluorophenyl)-2,2-dimethyl-1,3-dioxolan-4-yl)methyl sulfamate], the responders at 50 mg/kg in assay [1] (injection amount 50 mg/kg, 4 mice, read-out: mMES(po) Protection %) came to 100%. For the same molecule, the “Anti-epileptogenesis (rat/ip) Protection %” value is recorded as “(16.6%)” in assay [3] (injection amount 100 mg/kg, 1 h); “(50%)” in assay [3] (injection amount 100 mg/kg, 2 h); 150^b(16.6%) in assay [3] (setting [6]). Besides, in assay [4] (injection amount 50 mg/kg, 6 rats), the “rMES(po) Protection %” value is on record as 50^b(66.6%).
